16 molecules from ChEMBL document CHEMBL5104211, “Design and synthesis of bile acid derivatives and their activity against colon cancer” (RSC Med Chem, 2022) can be followed below.

What is called IC50 is the midpoint of a concentration-inhibition curve.

One series has as its system HT-29. Put plainly: Anticancer activity against human HT-29 cells assessed as inhibition of cell proliferation by MTT assay. The class given is functional, cell-based. (Tetrazolium assays rely on reduction of a dye to a coloured formazan, in cell work by metabolically active cells.)
A further series has as its system A549. Nature of the series: Anticancer activity against human A549 cells assessed as inhibition of cell proliferation by MTT assay. The class given is functional, cell-based.
The test system of another series is HCT-116. Nature of the series: Anticancer activity against human HCT-116 cells assessed as inhibition of cell proliferation by MTT assay. The class given is functional, cell-based.
The test system of a further series is SK-HEP1. Put plainly: Anticancer activity against human SK-HEP1 cells assessed as inhibition of cell proliferation by MTT assay. The class given is functional, cell-based.
Another series deals with MGC-803. Put plainly: Anticancer activity against human MGC-803 cells assessed as inhibition of cell proliferation by MTT assay. The class given is functional, cell-based.
Another series relates to Huh-7. Nature of the series: Anticancer activity against human Huh-7 cells assessed as inhibition of cell proliferation by MTT assay. Format: functional, cell-based.
The next series deals with SW480. Put plainly: Anticancer activity against human SW480 cells assessed as inhibition of cell proliferation by MTT assay. The class given is functional, cell-based.
Series [1] can be described thus: Cytotoxicity against human WI-38 cells assessed as inhibition of cell proliferation by MTT assay. The class given is toxicity, cell-based.
The subject of a further series is RKO. Put plainly: Anticancer activity against human RKO cells assessed as inhibition of cell proliferation by MTT assay. The class given is functional, cell-based.
The test system of the next series is LoVo. Put plainly: Anticancer activity against human LoVo cells assessed as inhibition of cell proliferation by MTT assay. The class given is functional, cell-based.

Regarding `C[C@H](CCC(=O)OCc1ccc([N+](=O)[O-])cc1)[C@H]1CC[C@H]2[C@@H]3[C@H](O)C[C@@H]4C[C@H](O)CC[C@]4(C)[C@H]3CC[C@]12C`, the 50% inhibitory concentration (IC50) was 29.6 µM in the series on HT-29; 87.2 µM with A549; 40.4 µM in the series with HCT-116; 111 µM in the series on SK-HEP1; 50.6 µM with MGC-803; 44.6 µM in the series on Huh-7. Further, the IC50 is 44.1 µM in the series with SW480, > 200 µM in [1], 43.2 µM in the series on RKO and 30.4 µM in the series on LoVo.
Turning to `Cc1ccc(COC(=O)CC[C@@H](C)[C@H]2CC[C@H]3[C@@H]4[C@H](O)C[C@@H]5C[C@H](O)CC[C@]5(C)[C@H]4CC[C@]23C)cc1`, the IC50 was 25.4 µM in the series with HT-29; 86.6 µM in the series with A549; 53.7 µM with HCT-116; 54.9 µM in the series with SK-HEP1; 37.5 µM with MGC-803; 27.2 µM in the series with Huh-7. Besides, the IC50 in the series with SW480 was 43.1 µM; in series [1] it was > 200 µM; with RKO it was 42.1 µM; with LoVo, 27.4 µM.
In the case of `CC(=O)Oc1ccc(OC(=O)CC[C@@H](C)[C@H]2CC[C@H]3[C@@H]4[C@H](O)C[C@@H]5C[C@H](O)CC[C@]5(C)[C@H]4CC[C@]23C)cc1`, the IC50 is 56.3 µM with HT-29; > 200 µM in the series on A549; 149 µM with HCT-116; 85 µM in the series on SK-HEP1; 109 µM in the series on MGC-803; 60.7 µM in the series on Huh-7. Moreover, the IC50 in the series with SW480 is 100 µM; in [1], > 200 µM; with RKO, 142 µM; with LoVo it was 76.9 µM.
Regarding `C[C@H](CCC(=O)OCc1cccc(O)c1)[C@H]1CC[C@H]2[C@@H]3[C@@H](O)C[C@@H]4C[C@@H](O)CC[C@]4(C)[C@H]3CC[C@]12C`, the IC50 is 58.8 µM with HT-29; > 200 µM in the series with A549; 54.2 µM in the series on HCT-116; 155 µM with SK-HEP1; 59.4 µM in the series with MGC-803; 152 µM with Huh-7. For the same molecule, the concentration for half-maximal inhibition (IC50) with SW480 is 99 µM; in [1], > 200 µM; with RKO it was 68.8 µM; with LoVo, 44.9 µM.
In the case of `CC(=O)Nc1ccc(OC(=O)CC[C@@H](C)[C@H]2CC[C@H]3[C@@H]4[C@H](O)C[C@@H]5C[C@H](O)CC[C@]5(C)[C@H]4C[C@H](O)[C@]23C)cc1`, the IC50 turned out to be 53.3 µM in the series with HT-29; 59.4 µM in the series with A549; 54.3 µM with HCT-116; 41.1 µM in the series with SK-HEP1; 36.7 µM with MGC-803; 70.4 µM with Huh-7. Further, the half-inhibitory concentration (IC50) in the series with SW480 was 38.7 µM; in [1], > 200 µM; with RKO it was 36.3 µM; with LoVo, 58 µM.
As to `COc1cc(COC(=O)CC[C@@H](C)[C@H]2CC[C@H]3[C@@H]4[C@H](O)C[C@@H]5C[C@H](O)CC[C@]5(C)[C@H]4CC[C@]23C)cc(OC)c1`, the IC50 worked out at 26 µM in the series with HT-29; 99.6 µM in the series on A549; 45 µM with HCT-116; 65.1 µM with SK-HEP1; 36.6 µM in the series on MGC-803; 63.1 µM in the series on Huh-7. The half-maximal inhibitory concentration (IC50) was 37.6 µM in the series with SW480, > 200 µM in [1], 45.4 µM in the series on RKO and 21.3 µM in the series with LoVo.
As to `C[C@H](CCC(=O)OCc1cccc(O)c1)[C@H]1CC[C@H]2[C@@H]3[C@H](O)C[C@@H]4C[C@H](O)CC[C@]4(C)[C@H]3C[C@H](O)[C@]12C`, the IC50 is 24.3 µM in the series with HT-29; 47.8 µM in the series with A549; 33 µM in the series with HCT-116; 61.8 µM in the series with SK-HEP1; 54.9 µM in the series with MGC-803; 102 µM in the series with Huh-7. The half-maximal inhibitory concentration (IC50) in the series with SW480 was 39.3 µM; in series [1], > 200 µM; in the series with RKO it was 47.6 µM; in the series with LoVo, 28.7 µM.
With `C[C@H](CCC(=O)O)[C@H]1CC[C@H]2[C@@H]3[C@H](O)C[C@@H]4C[C@H](O)CC[C@]4(C)[C@H]3CC[C@]12C` [CHENODIOL], the IC50 with HT-29, in the series on A549, with HCT-116, in the series with SK-HEP1, with MGC-803 and in the series with Huh-7 was > 200 µM in each case. For the same molecule, the IC50 with SW480, in the series with RKO and in the series with LoVo was > 200 µM throughout.
For `C[C@H](CCC(=O)OCc1cccc(O)c1)[C@H]1CC[C@H]2[C@@H]3CC[C@@H]4C[C@H](O)CC[C@]4(C)[C@H]3CC[C@]12C`, the half-inhibitory concentration (IC50) was 173 µM in the series on HT-29; > 200 µM with A549; 142 µM in the series with HCT-116; 125 µM with SK-HEP1; > 200 µM in the series on MGC-803; 185 µM in the series on Huh-7. The 50% inhibitory concentration (IC50) was 183 µM with SW480, > 200 µM in [1], 150 µM with RKO and 158 µM in the series on LoVo.
With `C[C@H](CCC(=O)O)[C@H]1CC[C@H]2[C@@H]3CC[C@@H]4C[C@H](O)CC[C@]4(C)[C@H]3CC[C@]12C` [LITHOCHOLIC ACID], the IC50 in the series on HT-29, in the series on A549, in the series with HCT-116, with SK-HEP1, with MGC-803 and in the series with Huh-7 was > 200 µM in each case. Besides, the IC50 with SW480, in the series on RKO and with LoVo was > 200 µM in each case.
As to `C[C@H](CCC(=O)O)[C@H]1CC[C@H]2[C@@H]3[C@H](O)C[C@@H]4C[C@H](O)CC[C@]4(C)[C@H]3C[C@H](O)[C@]12C` [CHOLIC ACID], the concentration for half-maximal inhibition (IC50) in the series with HT-29, with A549, in the series on HCT-116, with SK-HEP1, in the series on MGC-803 and in the series on Huh-7 was > 200 µM each time. Moreover, the IC50 in the series with SW480, with RKO and with LoVo was > 200 µM each time.
Regarding `C[C@H](CCC(=O)OCc1cccc(O)c1)[C@H]1CC[C@H]2[C@@H]3[C@H](O)C[C@@H]4C[C@H](O)CC[C@]4(C)[C@H]3CC[C@]12C`, the IC50 in the series on HT-29 was 33.6 µM; in the series with A549 it was 69.4 µM; in the series with HCT-116 it was 42.3 µM; in the series on SK-HEP1 it was 99 µM; in the series on MGC-803 it was 49 µM; in the series with Huh-7, 124 µM. The IC50 in the series with SW480 is 42.8 µM; in series [1], > 200 µM; in the series with RKO it was 128 µM; in the series with LoVo, 40.9 µM.
Consider `COC(=O)[C@H](CCSC)NC(=O)CC[C@@H](C)[C@H]1CC[C@H]2[C@@H]3[C@H](O)C[C@@H]4C[C@H](O)CC[C@]4(C)[C@H]3C[C@H](O)[C@]12C`, for which the IC50 in the series on HT-29 was 127 µM; with A549, > 200 µM; in the series with HCT-116 it was 85.2 µM; in the series on SK-HEP1, 173 µM; in the series on MGC-803, 96.9 µM; in the series on Huh-7, 190 µM. Besides, the IC50 was 64.7 µM in the series on SW480, > 200 µM in series [1], 97.3 µM with RKO and 51.6 µM in the series on LoVo.
Take `C[C@H](CCC(=O)O)[C@H]1CC[C@H]2[C@@H]3[C@@H](O)C[C@@H]4C[C@H](O)CC[C@]4(C)[C@H]3CC[C@]12C` [URSODIOL]: the IC50 in the series with HT-29, in the series with A549, in the series on HCT-116, in the series on SK-HEP1, in the series with MGC-803 and in the series with Huh-7 was > 200 µM each time. The IC50 in the series with SW480, in the series with RKO and in the series with LoVo was > 200 µM each time.
As for `C[C@H](CCC(=O)NCc1ccccc1O)[C@H]1CC[C@H]2[C@@H]3[C@H](O)C[C@@H]4C[C@H](O)CC[C@]4(C)[C@H]3C[C@H](O)[C@]12C`, the IC50 in the series on HT-29 was determined as 32.7 µM; in the series with A549 it was 40.5 µM; in the series with HCT-116, 36.3 µM; in the series with SK-HEP1, 25.4 µM; in the series with MGC-803 it was 42.3 µM; in the series with Huh-7, 63.7 µM. Moreover, the 50% inhibitory concentration (IC50) with SW480 is 35.9 µM; in series [1], > 200 µM; with RKO it was 48.5 µM; in the series with LoVo it was 51.1 µM.
With `CC(=O)Oc1ccc(OC(=O)CC[C@@H](C)[C@H]2CC[C@H]3[C@@H]4[C@@H](O)C[C@@H]5C[C@@H](O)CC[C@]5(C)[C@H]4CC[C@]23C)cc1`, the IC50 with HT-29 was determined as 123 µM; in the series on A549, 187 µM; in the series with HCT-116, 102 µM; in the series with SK-HEP1, 177 µM; with MGC-803 it was 111 µM; in the series with Huh-7, 185 µM. Also, the IC50 with SW480 was > 150 µM; in series [1], > 200 µM; in the series on RKO it was 187 µM; in the series with LoVo it was 168 µM.
